Test results: patent publication US20060257493A1, “Nanoparticulate delivery systems for treating multi-drug resistance” (priority 2005, published 2006)
Several values for one entry are separate records, joined by “and”; a condition that tells them apart may be missing. Equal entries are not always repeated.

What was measured:
[1] = tested on: SKOV3 cells (wildtype, drug sensitive human ovarian cancer cell line); assay: In-vitro cytotoxicity, MTS (formazan) assay, 6-day treatment; format: cell-based; details: 6 days
Description: (§1) In in-vitro cytotoxicity studies, the wildtype (drug sensitive (DS)) human ovarian cancer cell line SKOV3 was maintained in culture alongside an SKOV3TR subculture that was selected for multi-drug resistance in the presence of increasing concentrations of PTX. For cytotoxicity studies, 96-well plates were prepared with each cell type seeded at 5000 cells/well. The DS and MDR cells were subjected to dose-response studies against PTX, CER and PTX combined with CER, delivered as free drugs in solution or delivered in PEO-PCL nanoparticles. All studies were performed alongside a negative control (cell growth medium), a positive control (polyethyleneimine, PEI), and proper vehicle controls. Since PTX is a cell-cycle dependant chemotherapeutic, all treatments were left to proceed undisturbed for 6 days, allowing ample time for all cells to enter mitosis. Resulting cell death/viability was measured by the MTS (formazan) assay.

[2] = tested on: SKOV3TR cells (multi-drug resistant, PTX-selected subculture of SKOV3); assay: cells; format: cell-based, human
Description: as §1

SMILES | viability at 0.001 µM ([1]; Homo sapiens, SK-OV-3, 144 h, SKOV3, 1 nM PTX in solution, read-out: percent cell viability (cells survived)) [%] | viability at 0.1 µM ([1]; Homo sapiens, SK-OV-3, 144 h, SKOV3, 100 nM PTX in solution, read-out: percent cell viability (cells survived)) [%] | IC50 ([1]; Homo sapiens, SK-OV-3, 144 h, SKOV3, free drug in solution, read-out: IC50 of drug sensitive (SKOV3) cells to PTX in solution) [nM] | percent of MDR cells survived ([2]; 10 nM PTX) [%] | percent cell viability ([2]; 1 μM PTX in solution, 6 days) [%] | viability at 0.1 µM ([2]; Homo sapiens, 144 h, 100 nM PTX in solution, 6 days, read-out: percent cell viability) [%] | viability at 1 µM ([2]; Homo sapiens, 144 h, 1 μM PTX in solution, 6 days, read-out: percent cell viability) [%] | percent cell viability ([1]; SKOV3, CER alone 10 μM in solution, p<0.05) [%] | percent cell viability ([2]; CER alone 20 μM in solution, 6 days)
CC(=O)O[C@H]1C(=O)[C@@]2(C)[C@H]([C@H](OC(=O)c3ccccc3)[C@]3(O)C[C@H](OC(=O)[C@H](O)[C@@H](NC(=O)c4ccccc4)c4ccccc4)C(C)=C1C3(C)C)[C@]1(OC(C)=O)CO[C@@H]1C[C@@H]2O [PTX, Paclitaxel] | 76 ± 5.92 | 16.4 ± 0.41 | ~5 | 100 | 65.6±2.2 | 100 ± 5.78 | 65.7 ± 2.16 | – | –
CCCCCCCCCCCCC/C=C/[C@@H](O)[C@H](CO)NC(=O)CCCCC [CER, C6-ceramide] | – | – | – | – | – | – | – | 75.08±7.86 | 91.18±7.61% and 91.2±7.6%
